According to US20240415819A1, “MACROCYCLIC COMPOUNDS AS PROTEASOME SUBUNIT BETA TYPE-5 INHIBITORS” (Lead Discovery Center GmbH, priority 2021, published 2024):
pIC50: −log10 of the molar value. Like-named read-outs stand apart in the source and are kept apart here.

Assays:
[1] = system: A549 (human lung carcinoma cell line); test: Glo assay of A549 cells (Table 3; ProteasomeGlo plating scheme); format: cell-based; conditions: A549 cells, read-out: PGLo A549
How it was run: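 Luminescent read-out of cellular chymotrypsin-like proteasome activity: cells exposed to compound 105 min at 37° C., 5% CO2, then given Suc-LLVY-Glo reagent, shaken 2-5 min and kept dark 10-15 min before reading. Values are IC50 [nM].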

[2] = molecular target: T1, β5 subunit of the human constitutive proteasome (CPS) (Homo sapiens, UniProt P28074); test: β5 inhibition assay, human constitutive proteasome (Suc-LLVY-AMC); format: biochemical; conditions: IC50 class, Suc-LLVY-AMC substrate
T1 construct: purchased Boston Biochem E-360
Procedure: The enzymatic activity of the β5 subunit of the human constitutive proteasome (CPS) is analyzed. In another assay, which differs from the assay of the human constitutive proteasome only in using the human immunoproteasome (IPS) the enzymatic activity of the β5 subunit of the human immunoproteasome (IPS) is analyzed. […] Inhibition is indicated as IC50 [nM] (“-”=not measured).

HT-29 cells = test: CellTiter-Glo luminescent cell viability assay with HT-29 cells (72h incubation); format: cell-based, human; conditions: read-out: CTG HT29
How it was run: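 400 cells per well in DMEM/10% FCS were dosed after 24 h and kept 72 h at 37 °C, 5% CO2. ATP-based luminescence (CellTiter-Glo) normalized to DMSO and 10 μM staurosporine controls; IC50 by dose-response fit.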

[3] = Homo sapiens, HT-29, HT29 cells

Compound	pIC50 ([1]; Homo sapiens)	pIC50 [2]	pIC50 (HT-29 cells; [3])	pIC50 [1]	pIC50 (HT-29 cells; HT29 cells)
Cc1ccc2cc1CNC(=O)[C@H](CCc1ccccc1)NC(=O)[C@@H](NC(=O)OCc1ccccc1)CC(=O)N1CCCC(CCO2)C1 (stereo partly drawn) [Compound 7, benzyl ((9S,12S)-5^4-methyl-8,11,14-trioxo-9-phenethyl-4-oxa-7,10-diaza-1(3,1)-piperidina-5(1,3)-benzenacyclotetradecaphane-12-yl)carbamate]	> 7.00	> 7.00	> 7.00		
Cc1ccc2cc1CNC(=O)C(c1cnn(C)c1)NC(=O)CCCCC(=O)N1CCCC(CCO2)C1 (stereo not drawn) [Compound 356, 5^4-methyl-9-(1-methyl-1H-pyrazol-4-yl)-4-oxa-7,10-diaza-1(3,1)-piperidina-5(1,3)-benzenacyclohexadecaphane-8,11,16-trione]	6.00 to 6.30	6.00 to 6.30	6.00 to 6.30		
Cc1ccc2cc1CNC(=O)C(CCc1ccccc1)NC(=O)C(NC(=O)CCc1ccccc1)CC(=O)N1CCCC(CCO2)C1 [Compound 30, N-((9S,12S)-5^4-methyl-8,11,14-trioxo-9-phenethyl-4-oxa-7,10-diaza-1(3,1)-piperidina-5(1,3)-benzenacyclotetradecaphane-12-yl)-3-phenylpropanamide]		> 7.00		> 7.00	> 7.00
